Assays:
sebum production = settings: background statement; cited from earlier work
ABCA1 [1] = assay: ABCA1 protein concentration in fibroblasts during cholesterol efflux; format: cell-based, human; settings: efflux in the presence of FABAC, compared to untreated cells
Experimental: (§1) Steamchol was incubated with human skin fibroblasts for 20 hours to measure cholesterol loading in the presence of [^3H] cholesterol. After series of washing and adding efflux containing cholesterol acceptors, medium was collected and centrifuged and cell associated cholesterol was compared to effluxed cholesterol in the presence and absence of the similar FABAC. This research project also included quantification of mRNA of ABCA1 and direct measurement of ABCA1.
(§2) Similarly, cells were pre-incubated with […] cholesterol, washed four times and then placed in an incubation medium with or without Aramchol for 20 hours. Following the incubation, radioactivity was measured separately in the medium and in the cells. Cholesterol efflux percentage was calculated as radioactivity in medium divided by the total radioactivity (cells+medium).

ABCA1 [2] = assay: Taqman gene expression in Epiderm FT skin culture, ABCA1 mRNA; format: cell-based; settings: 0.5% (5000 μg/mL) in DMSO, 24 hours post-application, vs DMSO control
Experimental: (§3) A full-thickness in vitro skin culture model, Epiderm FT (MatTek, MA), was treated with Steamchol. A non-cytotoxic concentration of Steamchol in DMSO (0.5%, 5000 μg/mL) was applied to the surface of each test culture and cells were collected 24 hours post-application. Control cells were similarly treated with DMSO without Steamchol. Tissues were collected in RNAlater for gene expression analysis. Gene expression was analyzed using validated Taqman gene expression assays in a Taqman Low Density Array (TLDA) format. 94 genes that regulate a variety of known functions in skin were analyzed, including the ABCA1 and SCD1 genes. The experimental set up was conducted in a 96-well format using validated Taqman gene expression assays. Each gene was assayed in duplicates. Statistics were carried out using the StatMiner software v4.2 (unpaired t-tests, p<0.05, N=4) to compare the 0.5% Steamchol group to the DMSO control group.

KRT1 (keratin 1) = assay: Taqman gene expression in Epiderm FT skin culture, KRT1; format: cell-based; settings: 0.5% (5000 μg/mL) in DMSO, 24 hours post-application, vs DMSO control
Experimental: as §3

[3] = tested on: Full-thickness Epiderm cultures (EFT-400, MatTek); assay: Cytotoxicity assay (MTT) after topical application to full-thickness skin cultures; format: cell-based; settings: for Cell Viability: 24-hour exposure, MTT, vs untreated control
Experimental: Full-thickness Epiderm cultures (EFT-400, MatTek) were used to determine toxicity in response to topical application of a test material (Steamchol).
The test material was provided as a powder. Test solutions were prepared by adding the appropriate amount of powdered material to 1 mL DMSO. Lower concentrations were made by serial dilution with 100% DMSO. The final test material concentrations and treatments were: 2% Steamchol (20,000 ug/mL); 1% Steamchol (10,000 ug/mL); 0.1% Steamchol (1000 ug/mL); 0.01% Steamchol (100 ug/mL); vehicle control (100% DMSO); and untreated control.
Full-thickness skin cultures (EFT-400) were maintained according to MatTek protocol; the cultures were equilibrated at 37° C. and 5% CO2 for 24 hours prior to application of test materials. Test material was applied to the surface of each culture using sterile techniques (10 μL applied to each culture). Two cultures were assigned to each treatment group and the viability percentages presented below are averages of viability of each two cultures. Two EFT cultures served as an untreated control (also referred to as negative control in FIG. 2), and two other EFT cultures served as a positive control (100 μL 1% Triton X-100).
Following a 24-hour incubation period with the test material, cultures were processed for cell toxicity analysis using an MTT [(3-4,5-dimethylthiazole-2-yl) 2,5-diphenyltetrazoliumbromide] assay (reagents purchased from MatTek). Viable tissues converted MTT into a blue formazan salt that was detected by measuring absorbance at a specific wavelength of light (A570). Percent viability was calculated by comparing the A570 reading of the test cultures to the A570 of the untreated control culture, using the following formula: [Treated A570/Untreated A570]*100

KRT10 (keratin 10) = assay: Taqman gene expression in Epiderm FT skin culture, KRT10; format: cell-based; settings: 0.5% (5000 μg/mL) in DMSO, 24 hours post-application, vs DMSO control
Experimental: as §3

human skin fibroblasts = assay: Cholesterol efflux with [3H] cholesterol in fibroblasts; format: cell-based; settings: 20 hours incubation, compared to untreated cells
Experimental: as §1, §2

| Structure (SMILES) | Decrease of sebum production (sebum production) | ABCA1 protein concentration increase (ABCA1 [1]) | Change in mRNA levels of ABCA1 (ABCA1 [2]) | Fold Change of keratin 1 gene expression (KRT1 (keratin 1)) | Cell Viability ([3]; 0.01% Steamchol (100 ug/mL) in DMSO) | Cell Viability ([3]; 0.1% Steamchol (1000 ug/mL) in DMSO) | Cell Viability ([3]; 1% Steamchol (10,000 ug/mL) in DMSO) | Cell Viability ([3]; 2% Steamchol (20,000 ug/mL) in DMSO) | Toxicity in previous viability assay ([3]; 40.0, 13.3, 4.4, 1.5 ug/mL, data not shown) | Cell viability compared to the untreated control ([3]; all dilutions tested (0.01%-2%), 24 hours) | Fold Change of keratin 10 gene expression (KRT10 (keratin 10)) | Cholesterol efflux in fibroblasts (human skin fibroblasts) |
| --- | --- | --- | --- | --- | --- | --- | --- | --- | --- | --- | --- | --- |
| CC1=C(/C=C/C(C)=C/C=C/C(C)=C\C(=O)O)C(C)(C)CCC1 [Isotretinoin] | up to 90% |  |  |  |  |  |  |  |  |  |  |  |
| CCCCCCCCCCCCCCCCCC(=O)N[C@H]1CC[C@@]2(C)[C@@H](C1)C[C@@H](O)[C@@H]1[C@@H]2C[C@H](O)[C@]2(C)[C@@H]([C@H](C)CCC(=O)O)CC[C@@H]12 [Steamchol, 3β-stearylamido-7α,12α, dihidroxy-5β-cholan-24-oic acid] |  | approximately 2 fold | No significant change | −2.49 | 100.41% | 99.98% | 96.88% | 93.89% | no toxicity was observed | ~100% | −2.60 | significantly enhanced |
| CCCCCCCCCCCCCCCCCCCC(=O)N[C@H]1CC[C@@]2(C)[C@@H](C1)C[C@@H](O)[C@@H]1[C@@H]2C[C@H](O)[C@]2(C)[C@@H]([C@H](C)CCC(=O)O)CC[C@@H]12 [Aramchol, 3β-arachidylamido-7α,12α, dihidroxy-5β-cholan-24-oic acid] |  | approximately 2 fold |  |  |  |  |  |  |  |  |  | significantly enhanced |
